These results are taken from article PMC10886690, “Synthesis, Characterization, Antioxidant, and Anticancer Activity against Colon Cancer Cells of Some Cinnamaldehyde-Based Chalcone Derivatives” (Biomolecules, 2024).

The melting point is the temperature, or range, at which the solid turns liquid. By IC50 is commonly meant the concentration at which inhibition is half-maximal.

Where only a bound is given, the exact number is not on record here.

Data set [1] has as its system Caco-2 cells. In words: MTT cytotoxicity against Caco-2 cells. Type of data set: cell-based, human. To be noted: Homo sapiens, Caco-2, 24 h, 24 h incubation, mean ± SD of three analyses, read-out: IC50 Conc. against Caco-2 cells. The procedure: (§1) The American Type Culture Collection (ATCC) provided WI-38 (ATCC CCL-75), a cell line from the healthy human embryonic lung, and Caco-2 (ATCC HTB-37), a cell line from colon cancer. These cells were developed in DMEM medium that was supplemented with antibiotics and fetal bovine serum in a 5% CO2 humidified incubator at 37 °C.
The toxicity of the tested compounds (3a–3k) toward Caco-2 cancer cells was examined and compared to 5-Fluorouracil (5-FU, the standard reference drug) utilizing MTT assay, as previously explained. In brief, 1 × 10^5 Caco-2 cells/mL were distributed into each well of a 96-well plate and kept overnight at 37 °C in their growth mixture. The cells were then subjected to the various doses of the studied compounds (50–1000 µM). Following that, the cells were exposed to MTT solution, which induced formazan formation from the MTT, a byproduct of the metabolism of MTT that is proportionate to the quantity of intact cells. To further dissolve the formazan crystal, dimethyl sulfoxide was applied to the cells. Caco-2 survival was obtained through measuring the value of the optical density at 570 nm implementing a microplate reader (Bio-Rad, Hercules, CA, USA), and the effect of the substances on cell proliferation was expressed using the aforementioned formula (2):Cell viability % = (Abs. of tested sample − Abs. of blank)/(Abs. of control − Abs. of blank) × 100(2)
The half-suppression (IC50) dose of the test drugs over a 24 h incubation period was identified through examination of the concentration–response curve. Each value was evaluated three times, and the average of the three ratings was employed to obtain the results.

Data set [2] concerns wi38 cells. The experiment in a line: MTT test on healthy WI38 cells. Type of data set: cell-based, human. To be noted: 24 h. The procedure:
as §1
The effects of the investigated compounds on the survival of healthy cells, WI38, have been evaluated and compared to 5-Fluorouracil (5-FU, the standard reference drug) utilizing the MTT test at concentrations ranging from 50 to 1000 µM to further determine whether the substances were secure for usage on living tissues. Three distinct evaluations of each value were carried out to calculate the final findings.

Regarding `O=C(/C=C/C=C/c1ccc([N+](=O)[O-])cc1)c1cccs1` [3j, (2E,4E)-5-(4-nitrophenyl)-1-(thiophen-2-yl)penta-2,4-dien-1-one], the melting point is 218 °C. The IC50 in data set [1] was determined as 149 ± 2.55 µM.
The like results for `COc1ccccc1/C=C/C=C/C(=O)c1ccc[nH]1` [3g, (2E,4E)-5-(2-methoxyphenyl)-1-(1H-pyrrol-2-yl)penta-2,4-dien-1-one] were, in that order, 177 °C and 336 ± 4.96 µM.
The like results for `O=C(/C=C/C=C/c1ccc([N+](=O)[O-])cc1)c1ccccn1` [3h, (2E,4E)-5-(4-nitrophenyl)-1-(pyridin-2-yl)penta-2,4-dien-1-one] were, in that order, 205 °C and 548.6 ± 3.76 µM.
As for `O=c1[nH]cc(F)c(=O)[nH]1` [5-FU, 5-Fluorouracil, reference compound], the IC50 in data set [1] was determined as 33.1 ± 1.45 µM; in data set [2] (Homo sapiens, WI-38, 50–1000 µM, read-out: IC50 against normal wi38 cell) it was 22.8 ± 2.46 µM. Further, the “effect on wi38 normal cell viability” value in data set [2] (50 to 1000 µM) is “decrease in wi38 cell viability with increasing its concentration”.
`O=C(/C=C/C=C/c1ccccc1)c1ccco1` [3d, (2E,4E)-1-(furan-2-yl)-5-phenylpenta-2,4-dien-1-one]: the IC50 in data set [1] was over 1000 µM.
In turn, `O=C(/C=C/C=C/c1ccccc1)c1cccs1` [3c, (2E,4E)-5-phenyl-1-(thiophen-2-yl)penta-2,4-dien-1-one] came in with a melting point of 102 °C. Besides, the concentration for half-maximal inhibition (IC50) in data set [1] is over 1000 µM.
In turn, `O=C(/C=C/C=C/c1ccccc1)c1ccccn1` [3a, (2E,4E)-5-phenyl-1-(pyridin-2-yl)penta-2,4-dien-1-one] returned a melting point of 182 °C. Also, the 50% inhibitory concentration (IC50) in data set [1] is 725.6 ± 3.69 µM.
Take `O=C(/C=C/C=C/c1ccc([N+](=O)[O-])cc1)c1cccnc1` [3i, (2E,4E)-5-(4-nitrophenyl)-1-(pyridin-3-yl)penta-2,4-dien-1-one]: the IC50 in data set [1] turned out to be 207 ± 2.31 µM.
`O=C(/C=C/C=C/c1ccc([N+](=O)[O-])cc1)c1ccco1` [3k, (2E,4E)-1-(furan-2-yl)-5-(4-nitrophenyl)penta-2,4-dien-1-one] came in with a melting point of 189 °C. The concentration for half-maximal inhibition (IC50) in data set [1] turned out to be 130 ± 3.28 µM.
The like results for `COc1ccccc1/C=C/C=C/C(=O)c1ccccn1` [3f, (2E,4E)-5-(2-methoxyphenyl)-1-(pyridin-2-yl)penta-2,4-dien-1-one] were, in that order, 195 °C and 173 ± 3.84 µM.
Turning to `O=C(/C=C/C=C/c1ccccc1)c1cccnc1` [3b, (2E,4E)-5-phenyl-1-(pyridin-3-yl)penta-2,4-dien-1-one], the melting point worked out at 104 °C. In addition, in data set [1], the half-inhibitory concentration (IC50) is over 1000 µM.
